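A five-concentration, 48-hour dose response in 96-well plates underlies each endpoint, interpolated linearly between surrounding concentrations. GI50 marks 50% less growth. TGI denotes the concentration required for complete inhibition of growth.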
Experiments:
Test in all cases: NCI-60 cell line screen, 48 h
[1] = system: SF-295 CNS
[2] = system: COLO 205 colon
[3] = system: MOLT-4 leukemia
[4] = system: SW-620 colon
[5] = system: NCI/ADR-RES ovarian
[6] = system: U251 CNS
[7] = system: LOX IMVI melanoma
[8] = system: K-562 leukemia
[9] = system: A549 NSCLC
[10] = system: NCI-H460 lung
[11] = system: M14 melanoma
[12] = system: KM12 colon
[13] = system: SK-MEL-28 melanoma
[14] = system: OVCAR-4 ovarian
[15] = system: SN12C renal
[16] = system: IGROV1 ovarian
[17] = system: SF-539 CNS
[18] = system: NCI-H226 lung
[19] = system: SK-MEL-2 melanoma
[20] = system: MALME-3M melanoma
[21] = system: SF-268 CNS
[22] = system: SR leukemia
[23] = system: UACC-257 melanoma
[24] = system: HCC-2998 colon
[25] = system: OVCAR-5 ovarian
[26] = system: PC-3 prostate
[27] = system: T-47D breast
[28] = system: HCT-15 colon
[29] = system: ACHN renal
[30] = system: SNB-75 CNS
[31] = system: OVCAR-8 ovarian
[32] = system: HS 578T breast
[33] = system: NCI-H23 lung
[34] = system: EKVX NSCLC
[35] = system: RPMI-8226 leukemia
[36] = system: 786-0 renal
[37] = system: TK-10 renal
[38] = system: MDA-MB-231 breast
[39] = system: SK-MEL-5 melanoma
[40] = system: HL-60(TB) leukemia
[41] = system: UACC-62 melanoma
[42] = system: HOP-62 NSCLC
[43] = system: RXF 393 renal
[44] = system: NCI-H522 lung
[45] = system: SNB-19 CNS
[46] = system: MCF7 breast
[47] = system: HCT-116 colon
[48] = system: MDA-MB-435
[49] = system: OVCAR-3 ovarian
[50] = system: HT29 colon
[51] = system: DU-145 prostate
[52] = system: SK-OV-3 ovarian
[53] = system: CAKI-1 renal
[54] = system: CCRF-CEM leukemia
[55] = system: MDA-N
[56] = system: UO-31 renal
[57] = system: HOP-92 NSCLC
[58] = system: A498 renal
[59] = system: BT-549 breast

## Cc1cc2nc3ccccc3n2c2ccccc12
[1]
  TGI: > 10 µM
[2]
  TGI: > 10 µM
[3]
  TGI: > 10 µM
[4]
  TGI: > 10 µM
[5]
  TGI: > 10 µM
[6]
  TGI: > 10 µM
[7]
  TGI: > 10 µM
[8]
  TGI: > 10 µM
[9]
  TGI: > 10 µM
[10]
  TGI: > 10 µM
[11]
  TGI: > 10 µM
[12]
  TGI: > 10 µM
[13]
  TGI: > 10 µM
[14]
  TGI: > 10 µM
[15]
  TGI: > 10 µM
[16]
  TGI: > 10 µM
[17]
  TGI: > 10 µM
[18]
  TGI: > 10 µM
[19]
  TGI: > 10 µM
[20]
  TGI: > 10 µM
[21]
  TGI: > 10 µM
[22]
  TGI: > 10 µM
[23]
  TGI: > 10 µM
[24]
  TGI: > 10 µM
[25]
  TGI: > 10 µM
[26]
  TGI: > 10 µM
[27]
  TGI: > 10 µM
[28]
  TGI: > 10 µM
[29]
  TGI: > 10 µM
[30]
  TGI: > 10 µM
[31]
  TGI: > 10 µM
[32]
  TGI: > 10 µM
[33]
  TGI: > 10 µM
[34]
  TGI: > 10 µM
[35]
  TGI: > 10 µM
[36]
  TGI: > 10 µM
[37]
  TGI: > 10 µM
[38]
  TGI: > 10 µM
[39]
  TGI: > 10 µM
[40]
  TGI: > 10 µM
[41]
  TGI: > 10 µM
[42]
  TGI: > 10 µM
[43]
  TGI: > 10 µM
[44]
  TGI: > 10 µM
[45]
  TGI: > 10 µM
[46]
  TGI: > 10 µM
[47]
  TGI: > 10 µM
[48]
  TGI: > 10 µM
[49]
  TGI: > 10 µM
[50]
  TGI: > 10 µM
[51]
  TGI: > 10 µM
[52]
  TGI: > 10 µM
[53]
  TGI: > 10 µM
[54]
  TGI: > 10 µM
[55]
  TGI: > 10 µM

## CC/C=C/c1cc2c(cc1O)CCC1C2CC[C@@]2(C)C1CC[C@@H]2O (stereo not given in full)
[1]
  TGI: 1.48 µM
[2]
  TGI: 27.5 µM
[3]
  TGI: 18.8 µM
[4]
  TGI: 14.2 µM
[5]
  TGI: 5.67 µM
[6]
  TGI: 15.7 µM
[7]
  TGI: 6.68 µM
[8]
  TGI: 7.66 µM
[9]
  TGI: 20 µM
[10]
  TGI: 17.3 µM
[11]
  TGI: 12.2 µM
[12]
  TGI: 15 µM
[13]
  TGI: 24.1 µM
[14]
  TGI: 35.3 µM
[15]
  GI50: 5.13 µM
  TGI: 18.7 µM
[16]
  TGI: 17.5 µM
[17]
  GI50: 0.645 µM
  TGI: 2.59 µM
[18]
  TGI: 10.6 µM
[19]
  TGI: 6.29 µM
[56]
  TGI: 18.3 µM
[20]
  TGI: 15.8 µM
[21]
  TGI: 24.8 µM
[22]
  TGI: 0.817 µM
[23]
  TGI: 25.2 µM
[24]
  TGI: 33.2 µM
[25]
  TGI: 26.8 µM
[26]
  TGI: 11.6 µM
[27]
  TGI: 15 µM
[28]
  TGI: 29.9 µM
[29]
  TGI: 17.9 µM
[30]
  TGI: 8.14 µM
[31]
  TGI: 20.3 µM
[32]
  TGI: 6.11 µM
[33]
  TGI: 20.2 µM
[34]
  TGI: 14.3 µM
[35]
  TGI: 6.46 µM
[36]
  TGI: 13.8 µM
[37]
  TGI: 4.72 µM
[38]
  TGI: 18.1 µM
[39]
  TGI: 11.3 µM
[41]
  GI50: 0.485 µM
  TGI: 7.91 µM
[42]
  GI50: 2.69 µM
  TGI: 16.7 µM
[43]
  TGI: 7.92 µM
[44]
  TGI: 14.1 µM
[45]
  TGI: 17.4 µM
[46]
  TGI: 10.1 µM
[47]
  TGI: 14.3 µM
[48]
  TGI: 1.12 µM
[49]
  TGI: 1.6 µM
[50]
  TGI: 21.1 µM
[51]
  TGI: 14.6 µM
[52]
  TGI: 16.7 µM
[53]
  TGI: 13.7 µM
[57]
  TGI: 26 µM
[54]
  TGI: 14.8 µM
[55]
  TGI: 0.637 µM
[58]
  TGI: 9.03 µM

## COc1ccc2c(c1O)[C@@]13CCCC=C1[C@@H](C2)[N+](C)(C)CC3
[1]
  TGI: > 100 µM
[2]
  TGI: > 100 µM
[4]
  TGI: > 100 µM
[5]
  TGI: > 100 µM
[6]
  TGI: > 100 µM
[7]
  TGI: > 100 µM
[8]
  TGI: > 100 µM
[9]
  TGI: > 100 µM
[10]
  TGI: > 100 µM
[11]
  TGI: > 100 µM
[12]
  TGI: > 100 µM
[13]
  TGI: > 100 µM
[14]
  TGI: > 100 µM
[15]
  TGI: > 100 µM
[16]
  TGI: > 100 µM
[18]
  TGI: > 100 µM
[19]
  TGI: > 100 µM
[56]
  TGI: > 100 µM
[20]
  TGI: > 100 µM
[21]
  TGI: > 100 µM
[23]
  TGI: > 100 µM
[24]
  TGI: > 100 µM
[25]
  TGI: > 100 µM
[26]
  TGI: > 100 µM
[27]
  TGI: > 100 µM
[28]
  TGI: > 100 µM
[29]
  TGI: > 100 µM
[30]
  TGI: > 100 µM
[31]
  TGI: > 100 µM
[32]
  TGI: > 100 µM
[33]
  TGI: > 100 µM
[34]
  TGI: > 100 µM
[36]
  TGI: > 100 µM
[37]
  TGI: > 100 µM
[38]
  TGI: > 100 µM
[39]
  TGI: > 100 µM
[40]
  TGI: > 100 µM
[41]
  TGI: > 100 µM
[42]
  TGI: > 100 µM
[43]
  TGI: > 100 µM
[44]
  TGI: > 100 µM
[45]
  TGI: > 100 µM
[46]
  TGI: > 100 µM
[47]
  TGI: > 100 µM
[48]
  TGI: > 100 µM
[59]
  TGI: > 100 µM
[49]
  TGI: > 100 µM
[50]
  TGI: > 100 µM
[51]
  TGI: > 100 µM
[52]
  TGI: > 100 µM
[53]
  TGI: > 100 µM
[57]
  TGI: > 100 µM
[54]
  TGI: > 100 µM
[55]
  TGI: > 100 µM

From PubChem BioAssay (NCI)
